According to patent US12576115B2, “Bacterial compositions for treating and preventing halitosis” (Imvela Corp., priority 2023, dated 2026):

What was measured:
[1] = pH reduction of an environment by bacterial strain (Table 1, (b)); conditions: capable of reducing the pH of an environment from 7.5 or higher to less than 7.5
Description: (§1) Exemplary bacterial strains determined to be capable of (b) reducing the pH of an environment from 7.5 or higher to less than 7.5; (c) reducing the abundance of one or more VSCs in an environment having a pH of less than 7.5; and/or (d) enhances the reduction of one or more VSCs by another bacterial strain in an environment with a pH of 7.5 or higher, are listed below in Table 1.

[2] = tested on: volatile sulfur compounds (VSCs); assay: VSC reduction in an environment having a pH of less than 7.5 (Table 1, (c)); conditions: capable of reducing the abundance of one or more VSCs in an environment having a pH of less than 7.5
Description: as §1
Some bacterial strains of compositions, nutritional supplements, dental supplements, and food products were identified based on the ability to reduce the abundance of volatile sulfur compounds (VSCs) in an environment, and/or inhibit the production of VSCs by other microorganisms in the environment. VSCs are associated with the unpleasant odor of breath of subjects with halitosis, and reduction in VSC abundance (e.g., by VSC metabolism or inhibition of VSC production) is expected to alleviate this symptom of halitosis. Non-limiting examples of such VSCs include hydrogen sulfide, methyl mercaptan, and dimethyl sulfide, all of which give off strong and unpleasant odors.

## Bifidobacterium longum
[1]
  (b) pH reduction: Yes

## Lactobacillus acidophilus
[1]
  (b) pH reduction: Yes
[2]
  (c) VSC reduction: Yes

## Pediococcus acidilactici
[1]
  (b) pH reduction: Yes
[2]
  (c) VSC reduction: Yes
